{"source": "paper PMC5488202", "test": "Ring-closing metathesis (C=C formation) of fluorous-tagged (FDIPES) terminal dienes with Hoveyda-Grubbs 2nd generation catalyst (typically 2 mol%, 1-5 mol%), usually with 1,4-benzoquinone (4-10 mol%); quench P(CH2OH)3/Et3N/silica", "details": "MTBE, 2.0 mM, 55.0 °C", "data": [{"smiles": "CC(C)[Si](CCC(F)(F)C(F)(F)C(F)(F)C(F)(F)C(F)(F)C(F)(F)C(F)(F)C(F)(F)F)(OC[C@@H]1COCC=CCC[C@@H](O[Si](C)(C)C(C)(C)C)[C@H](C)CN(S(=O)(=O)C(F)(F)F)Cc2ccccc2CN1S(=O)(=O)c1ccccc1[N+](=O)[O-])C(C)C", "note": "[34 (16+11; E/Z >98:<2)]", "values": [{"measurement": "ring closure, isolated yield", "setting": "from C=CCC[C@@H](O[Si](C)(C)C(C)(C)C)[C@H](C)CN(Cc1ccccc1CN([C@@H](COCC=C)CO[Si](CCC(F)(F)C(F)(F)C(F)(F)C(F)(F)C(F)(F)C(F)(F)C(F)(F)C(F)(F)F)(C(C)C)C(C)C)S(=O)(=O)c1ccccc1[N+](=O)[O-])S(=O)(=O)C(F)(F)F, 17-membered ring, 16.0 h", "value": 61, "unit": "%"}]}, {"smiles": "CC(C)[Si](CCC(F)(F)C(F)(F)C(F)(F)C(F)(F)C(F)(F)C(F)(F)C(F)(F)C(F)(F)F)(OC[C@@H]1COCC=CCCN(S(=O)(=O)C(F)(F)F)Cc2ccccc2CN1S(=O)(=O)c1ccccc1[N+](=O)[O-])C(C)C", "note": "[35 (16+12; E/Z 70:30)]", "values": [{"measurement": "ring closure, isolated yield", "setting": "from C=CCCN(Cc1ccccc1CN([C@@H](COCC=C)CO[Si](CCC(F)(F)C(F)(F)C(F)(F)C(F)(F)C(F)(F)C(F)(F)C(F)(F)C(F)(F)F)(C(C)C)C(C)C)S(=O)(=O)c1ccccc1[N+](=O)[O-])S(=O)(=O)C(F)(F)F, 14-membered ring, 36.0 h", "value": 98, "unit": "%"}]}, {"smiles": "COc1ccc([C@H]2COCC=CCOC[C@H](CO[Si](CCC(F)(F)C(F)(F)C(F)(F)C(F)(F)C(F)(F)C(F)(F)C(F)(F)C(F)(F)F)(C(C)C)C(C)C)N(S(=O)(=O)c3ccccc3[N+](=O)[O-])Cc3cccc(c3)CN(S(=O)(=O)c3ccccc3[N+](=O)[O-])C(=O)OC2)c(OC)c1", "note": "[36 (17+9; E/Z 25:75)]", "values": [{"measurement": "ring closure, isolated yield", "setting": "from C=CCOC[C@@H](COC(=O)N(Cc1cccc(CN([C@H](COCC=C)CO[Si](CCC(F)(F)C(F)(F)C(F)(F)C(F)(F)C(F)(F)C(F)(F)C(F)(F)C(F)(F)F)(C(C)C)C(C)C)S(=O)(=O)c2ccccc2[N+](=O)[O-])c1)S(=O)(=O)c1ccccc1[N+](=O)[O-])c1ccc(OC)cc1OC, 20-membered ring, 24.0 h", "value": 76, "unit": "%"}]}, {"smiles": "CC(C)[Si](CCC(F)(F)C(F)(F)C(F)(F)C(F)(F)C(F)(F)C(F)(F)C(F)(F)C(F)(F)F)(OC[C@H]1COCC=CCOc2ccccc2COC(=O)N(S(=O)(=O)c2ccccc2[N+](=O)[O-])Cc2cccc(c2)CN1S(=O)(=O)c1ccccc1[N+](=O)[O-])C(C)C", "note": "[37 (17+10; E/Z 70:30)]", "values": [{"measurement": "ring closure, isolated yield", "setting": "from C=CCOC[C@H](CO[Si](CCC(F)(F)C(F)(F)C(F)(F)C(F)(F)C(F)(F)C(F)(F)C(F)(F)C(F)(F)F)(C(C)C)C(C)C)N(Cc1cccc(CN(C(=O)OCc2ccccc2OCC=C)S(=O)(=O)c2ccccc2[N+](=O)[O-])c1)S(=O)(=O)c1ccccc1[N+](=O)[O-], 20-membered ring, 60.0 h", "value": 78, "unit": "%"}]}, {"smiles": "CC(C)[Si](CCC(F)(F)C(F)(F)C(F)(F)C(F)(F)C(F)(F)C(F)(F)C(F)(F)C(F)(F)F)(OC[C@H]1COCC=CCCN(S(=O)(=O)C(F)(F)F)Cc2cccc(c2)CN1S(=O)(=O)c1ccccc1[N+](=O)[O-])C(C)C", "note": "[38 (17+12; E 55% + Z 15%)]", "values": [{"measurement": "ring closure, isolated yield", "setting": "from C=CCCN(Cc1cccc(CN([C@H](COCC=C)CO[Si](CCC(F)(F)C(F)(F)C(F)(F)C(F)(F)C(F)(F)C(F)(F)C(F)(F)C(F)(F)F)(C(C)C)C(C)C)S(=O)(=O)c2ccccc2[N+](=O)[O-])c1)S(=O)(=O)C(F)(F)F, 15-membered ring, 48.0 h", "value": 70, "unit": "%"}]}]}
